Laboratory results taken from patent US6423823B1, “Organic chemical compounds and method for producing the same” (Bayer Aktiengesellschaft, priority 1997, dated 2002).
Numbered stars: 1 amine (or outer) side, 2 acyl side, 3 side chain; on linkers, the order of the positions; unused ones are H or OH. Square brackets hold non-standard residues; d marks the D form. Peptide text beside a SMILES is read from it. ξ: configuration not given here. X1 = CC(OC(=O)CC(C)(C)O)C(C)C(C(=O)[*:2])N(C)[*:1]; X4 = CC(=O)OC(C)C(C)C(C(=O)[*:2])N(C)[*:1]; X3 = O=C(C1CC2(O)c3ccccc3NC2N1[*:1])[*:2]; ξNMeVal(3-OH) = CNC(C(=O)O)C(C)(C)O; NMeξGly(OAc) = CNC(OC(C)=O)C(=O)O; NMeI = CC[CH](C)[CH](NC)C(=O)O; X2 = CN(C(O)C(=O)[*:2])[*:1]; NMeV = CN[CH](C(=O)O)C(C)C; Sar = CNCC(=O)O

Key:
[1] = tested on: Meloidogyne incognita; assay: Nematicidal activity on phytopathogenic nematodes in 24-well tissue culture plates; details: lethal dose for 90% of the nematode population, second larval stage, after 16 hours
Protocol: (§1) Test nematode: Meloidogyne incognita
Test method: The test substances are dissolved in methanol and pipetted into the wells of tissue culture plates (24-well tray). The solvent is evaporated, and 400 μl of nematode suspension are then added to each well of the tissue culture plate. The number of nematodes is 100 larvae of the second larval stage/400 μl . To promote the solubility of the samples in aqueous medium, the plate is shaken at 100 rpm for 15 minutes, and a first microscopic control is then carried out. After 16 hours, the percentage of dead larvae is determined and stated as LD90 (lethal dose for 90% of the nematode population).

[2] = tested on: Spodoptera frugiperda; assay: Insecticidal maize leaf test; format: in vivo; details: lethal dose for 50% of larvae, third larval stage, after 72 hours
Protocol: Test Insect: Spodoptera frugiperda
Test method: A rectangle (1.5×2 cm) cut from maize leaves (8-10 day-old plant, variety Golda) is placed in a Petri dish (diameter 5.5 cm, Greiner). The test substance, as a methanolic solution, is applied to the maize leaf and, after the solvent has evaporated, a filter disc (diameter 13 mm, Schleicher und Schüll) saturated with water and a larva of the third larval stage are added. The larva is placed next to the piece of leaf. The experiment is incubated at 24° C. After 48 hours, untreated maize (1.5×2 cm) is added. The feed behaviour and the state of the larvae are evaluated after 24, 48 and 72 hours. Per test concentration, 4 experiments and 3 repetitions are carried out. The insecticidal effect is stated as LD50 (lethal dose for 50% of larvae) after 72 hours.

[3] = tested on: Meloidogyne incognita; assay: Effect on nematodes in the greenhouse (test crop: cucumbers); format: in vivo; details: for Efficacy in %: cucumber plants, after 14 days, 100% = no galls formed; for Number of galls/plant: poured onto cucumber plants, evaluation after 14 days
Protocol: as §1
Test method: In each case two cucumber plants (variety Bella F1) are grown in a soil-leaf mixture in pots of the dimensions 7×7×6 cm. The test substances are, in the appropriate concentrations, dissolved in methanol and then diluted in water and then poured onto the cucumber plants, which are about 14 days old. Per drip, 10 ml of solution are poured on. 3 hours after the treatment, about 500 nematodes are pipetted as a suspension onto each pot. The pots are incubated in a greenhouse at a day temperature of about 26° C. and a night temperature of 20° C. After 14 days, evaluation is carried out by washing out the roots and determining the galls formed per plant.
The efficacy of the test substance is 100% if no galls have been formed, and it is 0% if the same number of galls have been formed as in the control.

[4] = tested on: Plutella xylostella; assay: Insecticidal leaf disc test (savoy cabbage); format: in vivo; details: lethal dose for 100% of the larvae tested, third larval stage, after 72 hours
Protocol: Test insect: Plutella xylostella
(§2) Test method: Using a cork borer, 2 discs having a diameter of 10 mm are punched out of savoy cabbage leaves and placed in a Petri dish (diameter 5.5 cm, Greiner). The test substance is pipetted onto the leaf discs and, after the solvent has evaporated, a filter disc (diameter 13 mm, Schleicher und Schüll) saturated in water and 2 freshly hatched larvae of the third larval stage are added. The larvae are placed next to the leaf discs. The experiment is incubated at 24° C. After 48 hours, an untreated savoy cabbage disc (10 mm Ø) is added. The feed behaviour and the state of the larvae are evaluated after 24, 48 and 72 hours. Per test concentration, 2 experiments and 3 repetitions are carried out. The insecticidal effect is stated as LD100 (lethal dose for 100% of the larvae tested) after 72 hours.

[5] = tested on: Phaedon cochleariae; assay: Insecticidal leaf disc test (savoy cabbage); format: in vivo; details: lethal dose for 100% of the larvae tested, third larval stage, after 96 hours
Protocol: Test insect: Phaedon cochleariae
as §2, with “und Schull)” for “und Schüll)”, “24, 48, 72” for “24, 48”, “and 96” for “and 72”, “after 96” for “after 72”

[6] = tested on: Trichinella spiralis; assay: In vitro test against Trichinella spiralis; details: concentration of 1 μg/ml
Protocol: The test was carried out according to the test description in the publication Plant et al. (1996) Pesticide Science 48: 351-358.

[7] = tested on: Heterakis spumosa; assay: In vivo mouse model, intestinal nematode; details: dosage of 50 mg/kg
Protocol: In the in vivo mouse model, omphalotin B has full activity against the intestinal nematode Heterakis spumosa at a dosage of 50 mg/kg. The test is described in the above publication.

| Compound | Nematicidal activity against Meloidogyne incognita LD90 [1] [µg/mL] | Insecticidal activity against Spodoptera frugiperda LD50 [2] [μg/maize leaf] | Efficacy in % ([3]; 2 ppm) [%] | Number of galls/plant ([3]; 2 ppm) | Efficacy in % ([3]; 5 ppm) [%] | Number of galls/plant ([3]; 5 ppm) | Insecticidal activity against Plutella xylostella LD100 [4] [μg/leaf disc] | Insecticidal activity against Phaedon cochleariae LD100 [5] [μg/leaf disc] | Effect against Trichinella spiralis in vitro [6] | Activity against the intestinal nematode Heterakis spumosa [7] |
| --- | --- | --- | --- | --- | --- | --- | --- | --- | --- | --- |
| CCC(C)C1NC(=O)C(C(C)C)N(C)C(=O)C2CC3(O)c4ccccc4NC3N2C(=O)CN(C)C(=O)C(C(C)CC)N(C)C(=O)C(C(C)C)NC(=O)C(OC(C)=O)N(C)C(=O)C(C(C)C(C)OC(=O)CC(C)(C)O)N(C)C(=O)C(C(C)(C)O)N(C)C(=O)CN(C)C(=O)C(C(C)C)N(C)C(=O)C(C(C)C)N(C)C1=O (centres unmarked) [Omphalotin C] (cyclo([Sar][ξNMeVal(3-OH)][X1][NMeξGly(OAc)]V[NMeI][Sar][X3][NMeV]I[NMeV][NMeV]); configuration not given here) | 1 | 100 | 99 | 1 | 100 | 0 | – | – | – | – |
| CCC(C)C1NC(=O)C(C(C)C)N(C)C(=O)C2CC3(O)c4ccccc4NC3N2C(=O)CN(C)C(=O)C(C(C)CC)N(C)C(=O)C(C(C)C)NC(=O)C(OC(C)=O)N(C)C(=O)C(C(C)C(C)OC(C)=O)N(C)C(=O)C(C(C)(C)O)N(C)C(=O)CN(C)C(=O)C(C(C)C)N(C)C(=O)C(C(C)C)N(C)C1=O (centres unmarked) [Omphalotin D] (cyclo([Sar][ξNMeVal(3-OH)][X4][NMeξGly(OAc)]V[NMeI][Sar][X3][NMeV]I[NMeV][NMeV]); configuration not given here) | 4 | 80 | – | – | – | – | 100 | 100 | – | – |
| CCC(C)C1NC(=O)C(C(C)C)N(C)C(=O)C2CC3(O)c4ccccc4NC3N2C(=O)CN(C)C(=O)C(C(C)CC)N(C)C(=O)C(C(C)C)NC(=O)C(O)N(C)C(=O)C(C(C)C(C)OC(=O)CC(C)(C)O)N(C)C(=O)C(C(C)(C)O)N(C)C(=O)CN(C)C(=O)C(C(C)C)N(C)C(=O)C(C(C)C)N(C)C1=O (centres unmarked) [Omphalotin B] (cyclo([Sar][ξNMeVal(3-OH)][X1][X2]V[NMeI][Sar][X3][NMeV]I[NMeV][NMeV]); configuration not given here) | 2.5 | – | 99 | 1 | 100 | 0 | – | – | full effect | full activity |
